Assay results published in patent US10792301B2, “Therapeutic polysaccharide midi-GAGR and related materials and methods” (priority 2015, dated 2020).

How the values were obtained:
[1] = tested on: Mouse cortical neurons (E17, DIV5); assay: LIVE/DEAD assay, pre-treated mouse cortical neurons with 4HNE, H2O2 or Aβ42; assay type: cell-based; details: pre-treatment 24 h (1 μM midi-GAGR, dextran, alginate; 0.1 μM LA-GAGR; 0.01 μM HA-GAGR); for neuron death after Aβ42 peptide: 2 μM Aβ42 48 h, vehicle about 30%; for neuron death after 4HNE: 10 μM 4HNE 24 h, vehicle ~26%; for neuron death after H2O2: 50 μM H2O2 24 h, vehicle ~25%
From the text: (§1) The protective effect of polysaccharides on primary cortical neurons from 4HNE, H2O2, and Aβ42 peptide (Sigma) was examined using LIVE/DEAD® Viability/Cytotoxicity Assay Kit (Life Technologies). Female pregnant mice (BALB/C, E17, Charles River Laboratories International, Inc.) or female pregnant SD rats (E17, bred in house) were anesthetized and dissected to obtain 8-9 embryos per animal. Cortical neurons were isolated from embryonic brains and differentiated on poly-L-lysine-coated coverslips in B27/neurobasal medium. For drug treatment before free radical treatment, mouse cortical neurons (5 days in vitro [DIV5.]) were treated with vehicle (H2O), 1 μM of 5 kD dextran (Sigma), alginate (Sigma), midi-GAGR, 0.01 μM of high acyl gellan gum (HA-GAGR, CPKelco Co.), or 0.1 μM of LA-GAGR for 24 h and then treated with 10 μM 4HNE or 50 μM H2O2 for 24 h, or 2 μM A[…]42 peptide for 48 h prior to viability/cytotoxicity assay. For drug co-treatment with free radicals, rat cortical neurons (DIV5) were treated with 1 μM of dextran, alginate, or midi-GAGR, 0.01 μM of HA-GAGR, or 0.1 μM of LA-GAGR along with either 10 μM 4HNE (24 h) or 2 μM Aβ42 peptide (48 h). To examine the extent to which midi-GAGR-mediated neuroprotection depends on FGFR1, rat cortical neurons (E17, DIV5) were pre-treated with 4 μM SU5402 (Sigma) for 6 h and treated with 10 μM 4HNE and either vehicle or 1 μM midi-GAGR for 24 h prior to cell viability/cytotoxicity assay. As controls, neurons were treated with SU5402, midi-GAGR, 4HNE, 4HNE plus midi-GAGR, or SU5402 plus midi-GAGR.
For cell viability/cytotoxicity measurement, neurons on glass coverslips were incubated in 1×PBS containing 2 μM calcein AM (live cells: green) and 4 μM ethidium homodimer-1 (dead cells: red) for 10 min at 37° C. Immediately thereafter, neurons were imaged by 10×objective using a fluorescence Olympus IX71 microscope (Olympus America Inc., Center Valley, Pa.) and, for the acquisition of high-quality images, using TCS SP5 multi-photon laser scanning confocal microscope.
Midi-GAGR attenuated neurite atrophy caused by free reactive radicals. It is now shown herein that midi-GAGR protect neurons from the death caused by free radical insults. The extent to which midi-GAGR protects the primary culture of rodent cortical neurons from 4HNE and H2O2 was determined. In addition to the radicals, amyloid β peptide (Aβ42) was also tested. Aβ42 peptide is a major causative factor that causes oxidative stress and neuron death. Mouse cortical neurons (E17, DIV5) were treated with 10 μM 4HNE (24 h), 50 μM H2O2 (24 h), or 2 μM Aβ42 peptide (48 h) after the treatment of the neurons with vehicle (H2O), midi-GAGR (1 μM), dextran (1 μM), alginate (1 μM), LA-GAGR (0.1 μM), or HA-GAGR (0.01 μM) for 24 h. The concentrations of 4HNE, H2O2, and Aβ42 peptide were chosen according to their patho-physiological concentrations. The concentrations of LA-GAGR and HA-GAGR were chosen because, within the same volume, the total numbers of sugar units in the polysaccharides at the concentrations are close to that of 1 μM midi-GAGR. The viability of neurons was assessed using LIVE/DEAD® Viability/Cytotoxicity Assay Kit in which membrane-permeant calcein AM is cleaved by esterase in live cells, thus yielding green fluorescence, and membrane-impermeant ethidium homodimer-1 stains the nucleic acids of plasma membrane-compromised cells with red fluorescence. The numbers of green (live) and red (dead) neurons in each condition were counted using Metamorph. Although the intensities of green fluorescent signals in neurons treated with either free radicals or Aβ42 peptide were weak, the neurons were included in the counting. About 8-9% of vehicle-treated neurons died during the process of live/dead cell assay (FIGS. 23A-23F, FIGS. 24A-24C).

[2] = tested on: pCREB in mouse cortical neurons; assay: Nuclear pCREB immunostaining in mouse cortical neurons (Example 4); assay type: cell-based; details: 48 h; 1 μM midi-GAGR, dextran, alginate; 0.1 μM LA-GAGR; 0.01 μM HA-GAGR
Description: (§2) To analyze the effect of polysaccharides on neurite outgrowth, primary mouse cortical neurons were treated with vehicle (H2O) or 1 μM of dextran, alginate, or midi-GAGR, 0.01 μM of HA-GAGR, or 0.1 μM of LA-GAGR for 2 days prior to immunocytochemistry using anti-α-tubulin antibody and secondary Alexa488nm antibody. An etched grid coverslip containing 200 numbered boxes was used to select neurons objectively for image acquisition and analysis. A total of 24 boxes were randomly selected per treatment group. All the neurons having total neurite length longer than 4 times of the diameter of neuron cell body were chosen for image analysis. The total length of the neurites of each neuron was measured using Metamorph and used to calculate average total neurite length. […] The intensity of the staining of nuclear pCREB was measured using Metamorph and used to calculate average intensity. In addition, the phosphorylation of CREB in the cytosols of mouse cortical neurons treated with polysaccharides were detected by immunoblotting. […] The protein bands on blots recognized by anti-pCREB (Santa Cruz Biotechnologies) and anti-CREB antibodies were detected on Amersham Hyperfilm™ ECL films (GE Healthcare Life Science) using SuperSignal® West Pico Chemiluminescent Substrate (Thermo Scientific). […]

[3] = ABTS Antioxidant Assay Kit; assay type: biochemical; details: 10 μM polysaccharide
Description: The antioxidant capacity of midi-GAGR was measured using ABTS Antioxidant Assay Kit (Zenbio Co.). […] This was slightly stronger than antioxidant capacity of LA-GAGR (10 μM LA-GAGR=15.4 μM trolox) (Table 2).

[4] = tested on: primary mouse cortical neurons (E17, DIV4); assay: Neurite outgrowth in primary mouse cortical neurons; assay type: cell-based; details: 2 days; 1 μM midi-GAGR, dextran, alginate; 0.1 μM LA-GAGR; 0.01 μM HA-GAGR
Description: To analyze the effect of polysaccharides on neurite outgrowth, primary mouse cortical neurons were treated with vehicle (H2O) or 1 μM of dextran, alginate, or midi-GAGR, 0.01 μM of HA-GAGR, or 0.1 μM of LA-GAGR for 2 days prior to immunocytochemistry using anti-α-tubulin antibody and secondary Alexa488nm antibody. An etched grid coverslip containing 200 numbered boxes was used to select neurons objectively for image acquisition and analysis. A total of 24 boxes were randomly selected per treatment group. All the neurons having total neurite length longer than 4 times of the diameter of neuron cell body were chosen for image analysis. The total length of the neurites of each neuron was measured using Metamorph and used to calculate average total neurite length. To examine the effect of polysaccharides on the phosphorylation (activation) of nuclear CREB, neurons were stained with anti-pCREB antibody (Abcam & Santa Cruz biotechnologies, 2nd antibody with Alexa568nm), anti-α-tubulin antibody (Sigma, 2nd antibody with Alexa488nm), and DAPI (Sigma) after two-day incubation with vehicle (H2O) or 1 μM of dextran, alginate, or midi-GAGR, 0.01 μM of HA-GAGR, or 0.1 μM of LA-GAGR. […] The images of neurons on coverslips were taken by confocal microscopy at the same gain (850), offset (˜0.01) and exposure time (2 sec). The intensity of the staining of nuclear pCREB was measured using Metamorph and used to calculate average intensity. In addition, the phosphorylation of CREB in the cytosols of mouse cortical neurons treated with polysaccharides were detected by immunoblotting. Primary mouse neurons were dissected from 16 mouse embryos (E17) and plated in the wells of 6-well plates (1×10^6 cells/well), differentiated for 6 days, and treated with polysaccharides for 48 h. […] The protein bands on blots recognized by anti-pCREB (Santa Cruz Biotechnologies) and anti-CREB antibodies were detected on Amersham Hyperfilm™ ECL films (GE Healthcare Life Science) using SuperSignal® West Pico Chemiluminescent Substrate (Thermo Scientific).

[5] = tested on: pCREB in mouse cortical neurons; assay: pCREB immunoblotting of neuron cytosols; assay type: cell-based; details: 48 h; 1 μM midi-GAGR, dextran, alginate; 0.1 μM LA-GAGR; 0.01 μM HA-GAGR
Description: as §2

[6] = tested on: Differentiated dopaminergic PC12 cells; assay: LIVE/DEAD viability of differentiated PC12 cells exposed to 6-OHDA; assay type: cell-based; details: 1 μM for 6 h, then 30 μM 6-OHDA for 24 h
Description: Differentiated dopaminergic PC12 cells and primary mouse embryonic cortical neurons (E17, DIV14) were treated with mock (H2O) or 1 μM of dextran, alginate, HA-GAGR or midi-GAGR for 6 h and insulated by oxidative stressors (30 μM 6-OHDA [PC12] and 10 μM amyloid β peptide [cortical neurons]) for 24 h.

[7] = tested on: phosphorylated CREB in mouse embryonic cortical neurons; assay: Nuclear p-CREB immunostaining in cortical neurons (Example 2); assay type: cell-based; details: 1 μM, 24 h
Description: (§3) Differentiated PC12 cells and mouse embryonic cortical neurons (E17, DIV14) were treated with mock, dextran, alginate, HA-GAGR or midi-GAGR (1 μM) for 24 h and fixed in 3.7% paraformaldehyde. The fixed cells and neurons were immunostained with antibodies against α-tubulin and phosopho-CREB (p-CREB) along with DAPI (nucleus).

[8] = tested on: phosphorylated CREB in differentiated PC12 cells; assay: Nuclear p-CREB immunostaining in PC12 cells; assay type: cell-based; details: 1 μM, 24 h
Description: as §3

[9] = tested on: pCREB in mouse cortical neurons (E17, DIV6); assay: Nuclear pCREB in midi-GAGR-treated neurons after signaling inhibitors; assay type: cell-based; details: inhibitor 6 h (SU5402 4 μM, staurosporine 3 nM, U0126 10 μM, LY294002 20 μM, KN-62 10 μM, PF-573228 1 μM), then 1 μM midi-GAGR 48 h
Description: To analyze the effect of polysaccharides on neurite outgrowth, primary mouse cortical neurons were treated with vehicle (H2O) or 1 μM of dextran, alginate, or midi-GAGR, 0.01 μM of HA-GAGR, or 0.1 μM of LA-GAGR for 2 days prior to immunocytochemistry using anti-α-tubulin antibody and secondary Alexa488nm antibody. An etched grid coverslip containing 200 numbered boxes was used to select neurons objectively for image acquisition and analysis. A total of 24 boxes were randomly selected per treatment group. All the neurons having total neurite length longer than 4 times of the diameter of neuron cell body were chosen for image analysis. The total length of the neurites of each neuron was measured using Metamorph and used to calculate average total neurite length. To examine the effect of polysaccharides on the phosphorylation (activation) of nuclear CREB, neurons were stained with anti-pCREB antibody (Abcam & Santa Cruz biotechnologies, 2nd antibody with Alexa568nm), anti-α-tubulin antibody (Sigma, 2nd antibody with Alexa488nm), and DAPI (Sigma) after two-day incubation with vehicle (H2O) or 1 μM of dextran, alginate, or midi-GAGR, 0.01 μM of HA-GAGR, or 0.1 μM of LA-GAGR. […] The images of neurons on coverslips were taken by confocal microscopy at the same gain (850), offset (˜0.01) and exposure time (2 sec). The intensity of the staining of nuclear pCREB was measured using Metamorph and used to calculate average intensity. In addition, the phosphorylation of CREB in the cytosols of mouse cortical neurons treated with polysaccharides were detected by immunoblotting. Primary mouse neurons were dissected from 16 mouse embryos (E17) and plated in the wells of 6-well plates (1×10^6 cells/well), differentiated for 6 days, and treated with polysaccharides for 48 h. Then, neurons were harvested and lysed in 1% Igepal CA-630 (Sigma)-containing PMEE buffer plus protease and phosphatase inhibitor cocktails (Sigma) for protein extraction. Extracted proteins were separated in 4-12% NuPAGE Bis-Tris protein gels (Life Technologies) and transferred to nitrocellulose membrane (GE Healthcare Life Science, Pittsburgh, Pa.) using a semidry blotter (Hoefer, Inc. San Francisco, Calif.). The protein bands on blots recognized by anti-pCREB (Santa Cruz Biotechnologies) and anti-CREB antibodies were detected on Amersham Hyperfilm™ ECL films (GE Healthcare Life Science) using SuperSignal® West Pico Chemiluminescent Substrate (Thermo Scientific).
Pharmacological agents were used to inhibit signaling molecules downstream of FGFR1 that mediate CREB phosphorylation. […] PF-573228 (PF, 1 μM) that inhibits FAK which sits at the bottleneck of the signaling pathway downstream of NCAM180 was also included to examine whether NCAM180 is involved in midi-GAGR-mediated CREB phosphorylation or not. […]

[10] = tested on: Rat cortical neurons (E17, DIV6); assay: LIVE/DEAD assay with FGFR1 inhibitor SU5402 and 4HNE; assay type: cell-based
From the text: as §1, with “To examine the extent to which midi-GAGR-mediated neuroprotection depends on FGFR1, rat cortical neurons (E17, DIV5) were pre-treated with 4 μM SU5402 (Sigma) for 6 h and treated with 10 μM 4HNE and either vehicle or 1 μM midi-GAGR for 24 h prior to cell viability/cytotoxicity assay. As controls, neurons were treated with SU5402, midi-GAGR, 4HNE, 4HNE plus midi-GAGR, or SU5402 plus midi-GAGR.” left out

| Compound | neuron death after Aβ42 peptide [1] | neuron death after 4HNE [1] | neuron death after H2O2 [1] | fold change in average total neurite length compared to vehicle [4] | average intensity of pCREB in midi-GAGR-treated neurons after inhibitor pre-treatment [9] | other results |
| --- | --- | --- | --- | --- | --- | --- |
| [D-Glc(β1→4)D-GlcA(β1→4)D-Glc(β1→4)L-Rha(α1→3]n [LA-GAGR] | ~10% | 10% | ~13% | ~1.6 fold |  | average intensity of nuclear pCREB compared to vehicle [2]: ~2 fold; Antioxidant capacity, ABTS assay [3]: 15.4 μM Trolox; levels of pCREB by immunoblotting compared to control [5]: significantly increased |
| alginate | did not decrease | reduced | did not reduce | did not enhance neuritogenesis |  | 6-OHDA-induced cell death [6]: did not; increase of the levels of nuclear p-CREB [7]: not significantly increased; increase of the levels of nuclear p-CREB [8]: not significantly increased |
| Cc1c[nH]c(/C=C2\C(=O)Nc3ccccc32)c1CCC(=O)O [SU5402] |  |  |  |  | significantly decreased | percent of dead cells, pre-treatment then 4HNE ([10]; SU5402 4 μM 6 h, then 10 μM 4HNE 24 h): ~80%; percent of dead cells without 4HNE ([10]; SU5402 4 μM, midi-GAGR 1 μM): did not increase |
| CS(=O)(=O)c1cccc(CNc2nc(Nc3ccc4c(c3)CCC(=O)N4)ncc2C(F)(F)F)c1 [PF-573228] |  |  |  |  | did not decrease |  |
| CN([C@@H](Cc1ccc(OS(=O)(=O)c2cccc3cnccc23)cc1)C(=O)N1CCN(c2ccccc2)CC1)S(=O)(=O)c1cccc2cnccc12 [KN-62] |  |  |  |  | decreased slightly but still statistically significantly |  |
| N#CC(=C(/N)Sc1ccccc1N)/C(C#N)=C(\N)Sc1ccccc1N [U0126] |  |  |  |  | significantly decreased |  |
